Among the data in US12162876B2, “Indazole kinase inhibitor and use thereof” (Tarapeutics Science Inc., priority 2018, dated 2024) are GI50 values, retold here.

Common to all, as to assay type: cell-based
One assay deals with BaF3. The assay is described as follows: Cell proliferation (CCK-8, 72 h), parental BaF3. Conditions: Mus musculus, parental BaF3 cells. An excerpt: (§1) In this example, human gastrointestinal stromal tumor cell line GIST-T1 (expressing wild-type C-KIT gene) (purchased from Cosmo Bio Co., Ltd. (Japan)), human gastrointestinal stromal tumor cell line GIST-T1-T670I (expressing C-KIT-T670I mutant gene) (constructed by our laboratory with CRISPR technology), mouse […] BaF3 (purchased from ATCC) were used. In addition, in this Example, mouse Tel-cKit-BaF3 (stably expressing C-KIT wild-type kinase), mouse Tel-cKit/T670I-BaF3 (stably expressing cKIT T670I mutant kinase), mouse Tel-PDGFRα-BaF3 (stably expressing PDGFRα kinase), mouse Tel-PDGFRβ-BaF3 (stably expressing PDGFRβ kinase), mouse Tel-VEGFR2-BaF3 (stably expressing VEGFR2 kinase), mouse Tel-FLT3-BaF3 (stably expressing FLT3 kinase) were also used. The above cell lines were all constructed by our laboratory. The construction method was as follows: the human C-KIT, C-KIT T670I, PDGFRα, PDGFRβ, VEGFR2, FLT3 kinase region sequences were amplified by PCR respectively and inserted into MSCV-Puro vector (purchased from Clontech) with N-terminal TEL fragment and/or NPM fragment and/or TPR fragment respectively, which was stably transferred into mouse BaF3 cells by retroviral method, and IL-3 growth factor was removed, and finally the cell lines in which protein was transferred depending on C-KIT, C-KIT/T670I, PDGFRα, PDGFRβ, VEGFR2, FLT3 were obtained. The GIST-T1-T670I (expressing C-KIT-T670I mutant gene) cell line was constructed by our laboratory. The construction method was as follows: the sgRNA targeting near the T670 site of the KIT gene was designed by the CRISPR design tool of the Zhang Feng Laboratory of the Massachusetts Institute of Technology (URL: crispr.mit.edu) and cloned into pSpCas9(BB)-2A-Puro vector (Addgene, USA); the obtained vector and a single-stranded oligonucleotide with T670I mutation near the T670 site were co-transfected into the cells, and after antibiotic selection, they were diluted and cultured in a single cell in a 96-well plate; the T670 site of the cells was sequenced and verified by the Sanger sequencing method.

Another assay relates to TEL-cKIT-BaF3. The assay is described as follows: Cell proliferation (CCK-8, 72 h), TEL-cKIT-BaF3. Conditions: Mus musculus, BaF3 expressing wild-type C-KIT kinase.
Excerpt: as §1

A further assay concerns TEL-cKIT/T670I-BaF3. As to the kind of experiment: Cell proliferation (CCK-8, 72 h), TEL-cKIT/T670I-BaF3. The note with it: Mus musculus; BaF3 expressing cKIT T670I mutant kinase, 72 h, CCK-8; read-out: GI50 TEL-cKIT/T670I-BaF3.
Excerpt: as §1

A further assay concerns TEL-VEGFR2-BaF3. The assay is described as follows: Cell proliferation (CCK-8, 72 h), TEL-VEGFR2-BaF3. Conditions: Mus musculus, BaF3 expressing VEGFR2 kinase.
Excerpt: as §1

For the next assay, the system named is TEL-PDGFRα-BaF3. The assay is described as follows: Cell proliferation (CCK-8, 72 h), TEL-PDGFRα-BaF3. The note with it: Mus musculus, BaF3 expressing PDGFRα kinase.
Excerpt: as §1

For a further assay, the system named is TEL-PDGFRβ-BaF3. As to the kind of experiment: Cell proliferation (CCK-8, 72 h), TEL-PDGFRβ-BaF3. Conditions: Mus musculus, BaF3 expressing PDGFRβ kinase.
Excerpt: as §1

Another assay has as its system TEL-FLT3-BaF3. The assay is described as follows: Cell proliferation (CCK-8, 72 h), TEL-FLT3-BaF3. Conditions: Mus musculus, BaF3 expressing FLT3 kinase.
Excerpt: as §1

For the compound `CNC(=O)c1ccccc1Sc1ccc2c(/C=C/c3ccccn3)n[nH]c2c1` [Axitinib, reference compound], the GI50 in the assay on BaF3 is 0.43 µM; in the assay on TEL-cKIT-BaF3, 0.02 µM; with TEL-cKIT/T670I-BaF3 it was 0.048 µM; with TEL-VEGFR2-BaF3 it was below 0.0001 µM; in the assay on TEL-PDGFRα-BaF3, 0.0014 µM; in the assay on TEL-PDGFRβ-BaF3 it was 0.002 µM. This compound yielded a GI50 in the assay on TEL-FLT3-BaF3 of 0.3 µM.

With `Cc1nc(NC(=O)c2ccc(CN3CCN(C)CC3)cc2)sc1-c1ccc2c(/C=C/c3ccccn3)n[nH]c2c1` [Compound 1, (E)-N-(4-methyl-5-(3-(2-(pyridin-2-yl)vinyl)-1H-indazol-6-yl)thiazol-2-yl)-4-((4-methylpiperazin-1-yl)methyl)benzamide], the GI50 with BaF3 turned out to be 0.058 µM; in the assay on TEL-cKIT-BaF3 it was 0.024 µM; in the assay with TEL-cKIT/T670I-BaF3, 0.003 µM; with TEL-VEGFR2-BaF3, 0.016 µM; in the assay with TEL-PDGFRα-BaF3, 0.001 µM; in the assay with TEL-PDGFRβ-BaF3, 0.003 µM. The compound further showed a GI50 with TEL-FLT3-BaF3 below 0.001 µM.

In the case of `COc1ccc(CC(=O)Nc2nc(C)c(-c3ccc4c(/C=C/c5ccccn5)n[nH]c4c3)s2)cc1OC` [Compound 8, (E)-2-(3,4-methoxyphenyl)-N-(4-methyl-5-(3-(2-(pyridin-2-yl)vinyl)-1H-indazol-6-yl)thiazol-2-yl)acetamide], the GI50 with BaF3 was 4.87 µM; in the assay with TEL-cKIT-BaF3 it was 0.216 µM; in the assay on TEL-cKIT/T670I-BaF3, 0.019 µM; in the assay on TEL-VEGFR2-BaF3, 0.019 µM; in the assay with TEL-PDGFRα-BaF3 it was 0.0012 µM; with TEL-FLT3-BaF3, 0.0004 µM.

Regarding `Cc1nc(NC(=O)Cc2cccc(Cl)c2)sc1-c1ccc2c(/C=C/c3ccccn3)n[nH]c2c1` [Compound 10, (E)-2-(3-chlorophenyl)-N-(4-methyl-5-(3-(2-(pyridin-2-yl)vinyl)-1H-indazol-6-yl)thiazol-2-yl)acetamide], the GI50 in the assay with BaF3 stood at 4.1 µM; in the assay with TEL-cKIT-BaF3 it was 0.07 µM; with TEL-cKIT/T670I-BaF3, 0.037 µM; in the assay with TEL-VEGFR2-BaF3, 0.0098 µM; in the assay on TEL-PDGFRα-BaF3 it was 0.0013 µM; in the assay with TEL-FLT3-BaF3, 0.002 µM.

Consider `CSCCC(N)C(=O)Nc1nc(C)c(-c2ccc3c(/C=C/c4ccccn4)n[nH]c3c2)s1` (stereo not shown) [Compound 15, (E)-2-amino-N-(4-methyl-5-(3-(2-(pyridin-2-yl)vinyl)-1H-indazol-6-yl)thiazol-2-yl)-4-(methylthio)butanamide], for which the GI50 with BaF3 came to 0.594 µM; with TEL-cKIT-BaF3, 0.961 µM; in the assay with TEL-cKIT/T670I-BaF3 it was 0.016 µM; in the assay with TEL-FLT3-BaF3 it was 0.002 µM.

`Cc1nc(NC(=O)C2CCN(C)CC2)sc1-c1ccc2c(/C=C/c3ccccn3)n[nH]c2c1` [Compound 16, (E)-1-methyl-N-(4-methyl-5-(3-(2-(pyridin-2-yl)vinyl)-1H-indazol-6-yl)thiazol-2-yl)piperidin-4 carboxamide]: the GI50 with BaF3 amounted to 1.51 µM; with TEL-cKIT-BaF3 it was 1.35 µM; in the assay with TEL-cKIT/T670I-BaF3, 0.323 µM; in the assay with TEL-FLT3-BaF3 it was 2.15 µM.

Consider `Cc1nc(NC(=O)C(C)N)sc1-c1ccc2c(/C=C/c3ccccn3)n[nH]c2c1` (stereo not shown) [Compound 17, (E)-2-amino-N-(4-methyl-5-(3-(2-(pyridin-2-yl)vinyl)-1H-indazol-6-yl)thiazol-2-yl)propionamide], for which the GI50 was found to be 0.544 µM with BaF3, 0.46 µM in the assay on TEL-cKIT-BaF3, 0.088 µM in the assay on TEL-cKIT/T670I-BaF3 and 0.004 µM with TEL-FLT3-BaF3.

Turning to `Cc1nc(NC(=O)C(N)CC(C)C)sc1-c1ccc2c(/C=C/c3ccccn3)n[nH]c2c1` (stereo not shown) [Compound 18, (E)-2-amino-4-methyl-N-(4-methyl-5-(3-(2-(pyridin-2-yl)vinyl)-1H-indazol-6-yl)thiazol-2-yl)pentanamide], the GI50 was determined as 0.706 µM with BaF3, 0.507 µM with TEL-cKIT-BaF3, 0.037 µM with TEL-cKIT/T670I-BaF3 and 0.006 µM with TEL-FLT3-BaF3.

Regarding `Cc1nc(NC(=O)C(C)C)sc1-c1ccc2c(/C=C/c3ccccn3)n[nH]c2c1` [Compound 19, (E)-N-(4-methyl-5-(3-(2-(pyridin-2-yl)vinyl)-1H-indazol-6-yl)thiazol-2-yl) isobutanamide], the GI50 with BaF3 turned out to be 1.58 µM; in the assay with TEL-cKIT-BaF3 it was 0.519 µM; in the assay on TEL-cKIT/T670I-BaF3 it was 0.041 µM; in the assay with TEL-FLT3-BaF3, 0.004 µM.

Consider `Cc1nc(NC(=O)C(N)Cc2ccccc2)sc1-c1ccc2c(/C=C/c3ccccn3)n[nH]c2c1` (stereo not shown) [Compound 20, (E)-2-amino-N-(4-methyl-5-(3-(2-(pyridin-2-yl)vinyl)-1H-indazol-6-yl)thiazol-2-yl)-3-phenylpropionamide], for which the GI50 in the assay on BaF3 was 0.708 µM; with TEL-cKIT-BaF3, 0.361 µM; in the assay with TEL-cKIT/T670I-BaF3, 0.037 µM; in the assay with TEL-FLT3-BaF3, 0.003 µM.

Regarding `Cc1nc(NC(=O)CN2CCN(C)CC2)sc1-c1ccc2c(-c3cnn(C)c3)n[nH]c2c1` [Compound 21, N-(4-methyl-5-(3-(1-methyl-1H-pyrazol-4-yl)-1H-indazol-6-yl)thiazol-2-yl)-2-(4-methylpiperazin-1-yl)acetamide], the GI50 was above 10 µM in the assay on BaF3, 2.74 µM in the assay on TEL-cKIT-BaF3, 0.984 µM in the assay with TEL-cKIT/T670I-BaF3 and 0.068 µM in the assay with TEL-FLT3-BaF3.

`Cc1nc(NC(=O)C(O)CC(C)C)sc1-c1ccc2c(/C=C/c3ccccn3)n[nH]c2c1` (stereo not shown) [Compound 22, (E)-2-hydroxyl-4-methyl-N-(4-methyl-5-(3-(2-(pyridin-2-yl)vinyl)-1H-indazol-6-yl)thiazol-2-yl)pentanamide]: the GI50 in the assay with BaF3 was 1.53 µM; with TEL-cKIT-BaF3, 1.01 µM; in the assay with TEL-cKIT/T670I-BaF3, 0.034 µM; in the assay with TEL-FLT3-BaF3, 0.002 µM.

With `Cc1nc(NC(=O)CN2CCN(C)CC2)sc1-c1ccc2c(-c3cnc(N)nc3)n[nH]c2c1` [Compound 23, N-(5-(3-(2-aminopyrimidin-5-yl)-1H-indazol-6-yl)-4-methylthiazol-2-yl)-2-(4-methylpiperazin-1-yl)acetamide], the GI50 in the assay on BaF3 stood at 1.56 µM; in the assay on TEL-cKIT-BaF3, 0.133 µM; in the assay on TEL-cKIT/T670I-BaF3, 0.013 µM; in the assay on TEL-FLT3-BaF3 it was 0.0005 µM.

Consider `Cc1nc(NC(=O)CN2CCN(C)CC2)sc1-c1ccc2c(-c3cccnc3)n[nH]c2c1` [Compound 24, N-(4-methyl-5-(3-(pyridin-3-yl)-1H-indazol-6-yl)thiazol-2-yl)-2-(4-methylpiperazin-1-yl)acetamide], for which the GI50 in the assay with BaF3 stood at 5.13 µM; in the assay on TEL-cKIT-BaF3, 3.21 µM; with TEL-cKIT/T670I-BaF3, 0.114 µM; with TEL-FLT3-BaF3 it was 0.012 µM.

`Cc1nc(NC(=O)CN2CCN(C)CC2)sc1-c1ccc2c(-c3cncc(F)c3)n[nH]c2c1` [Compound 25, N-(5-(3-(5-fluoropyridin-3-yl)-1H-indazol-6-yl)-4-methylthiazole-2-yl)-2-(4-methylpiperazin-1-yl)acetamide]: the GI50 with BaF3 is 1.69 µM; in the assay on TEL-cKIT-BaF3 it was 1.46 µM; in the assay on TEL-cKIT/T670I-BaF3, 0.241 µM; in the assay with TEL-FLT3-BaF3, 0.018 µM.

With `Cc1nc(NC(=O)CN2CCN(C)CC2)sc1-c1ccc2c(-c3cccc(F)c3)n[nH]c2c1` [Compound 26, N-(5-(3-(3-fluorophenyl)-1H-indazol-6-yl)-4-methylthiazol-2-yl)-2-(4-methylpiperazin-1-yl)acetamide], the GI50 worked out at 1.04 µM with BaF3, 1.02 µM with TEL-cKIT-BaF3, 0.083 µM with TEL-cKIT/T670I-BaF3 and 0.026 µM in the assay with TEL-FLT3-BaF3.

In the case of `Cc1nc(NC(=O)CC2CCN(C)CC2)sc1-c1ccc2c(/C=C/c3ccccn3)n[nH]c2c1` [Compound 27, (E)-N-(4-methyl-5-(3-(2-(pyridin-2-yl)vinyl)-1H-indazol-6-yl)thiazol-2-yl)-2-(1-methylpiperidin-4-yl)acetamide], the GI50 was 0.605 µM with BaF3, 0.094 µM in the assay with TEL-cKIT-BaF3, 0.001 µM with TEL-cKIT/T670I-BaF3 and below 0.001 µM in the assay with TEL-FLT3-BaF3.

Take `Cc1nc(NC(=O)Cc2cccc(C(F)(F)F)c2)sc1-c1ccc2c(-c3cccnc3)n[nH]c2c1` [Compound 28, N-(4-methyl-5-(3-(pyridin-3-yl)-1H-indazol-6-yl)thiazol-2-yl)-2-(3-(trifluoromethyl)phenyl)acetamide]: the GI50 with BaF3 was 2.49 µM; with TEL-cKIT-BaF3 it was 0.048 µM; in the assay on TEL-cKIT/T670I-BaF3, 0.007 µM; with TEL-FLT3-BaF3, 0.0001 µM.
